Assay results taken from US20260365670A1, “EGFR INHIBITORS AND USES THEREOF” (DIZAL (JIANGSU) PHARMACEUTICAL CO., LTD., priority 2022, published 2026).
Like-named read-outs stand apart in the source and are kept apart here.

Key:
PC-9 = experiment: Cell proliferation assay, PC-9 cells (CellTiter-Glo, 72 hours); type: cell-based; conditions: Homo sapiens, PC-9, 72 h, PC9 cells, read-out: GI50 PC9
Method in brief: (§1)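 Luminescent viable-cell counts were taken on a day 0 plate at dosing and again at endpoint. Proliferation was calculated as (sample − G0)/(DMSO − G0). Seeding was 5000 Ba/F3 or 500 PC-9 cells per well in RPMI1640, followed by overnight attachment and serial compound dilutions. The GI50 was fitted.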

EGFR L858R/T790M = target: T1, EGFR L858R/T790M (Homo sapiens, UniProt P00533, L858R/T790M); experiment: Inhibition of EGFR L858R/T790M biochemical enzymatic activity (HTRF); conditions: 1 mM ATP
T1 construct: purchased Carna Bio
T1 sequence (P00533 25-1210 T790M/L858R): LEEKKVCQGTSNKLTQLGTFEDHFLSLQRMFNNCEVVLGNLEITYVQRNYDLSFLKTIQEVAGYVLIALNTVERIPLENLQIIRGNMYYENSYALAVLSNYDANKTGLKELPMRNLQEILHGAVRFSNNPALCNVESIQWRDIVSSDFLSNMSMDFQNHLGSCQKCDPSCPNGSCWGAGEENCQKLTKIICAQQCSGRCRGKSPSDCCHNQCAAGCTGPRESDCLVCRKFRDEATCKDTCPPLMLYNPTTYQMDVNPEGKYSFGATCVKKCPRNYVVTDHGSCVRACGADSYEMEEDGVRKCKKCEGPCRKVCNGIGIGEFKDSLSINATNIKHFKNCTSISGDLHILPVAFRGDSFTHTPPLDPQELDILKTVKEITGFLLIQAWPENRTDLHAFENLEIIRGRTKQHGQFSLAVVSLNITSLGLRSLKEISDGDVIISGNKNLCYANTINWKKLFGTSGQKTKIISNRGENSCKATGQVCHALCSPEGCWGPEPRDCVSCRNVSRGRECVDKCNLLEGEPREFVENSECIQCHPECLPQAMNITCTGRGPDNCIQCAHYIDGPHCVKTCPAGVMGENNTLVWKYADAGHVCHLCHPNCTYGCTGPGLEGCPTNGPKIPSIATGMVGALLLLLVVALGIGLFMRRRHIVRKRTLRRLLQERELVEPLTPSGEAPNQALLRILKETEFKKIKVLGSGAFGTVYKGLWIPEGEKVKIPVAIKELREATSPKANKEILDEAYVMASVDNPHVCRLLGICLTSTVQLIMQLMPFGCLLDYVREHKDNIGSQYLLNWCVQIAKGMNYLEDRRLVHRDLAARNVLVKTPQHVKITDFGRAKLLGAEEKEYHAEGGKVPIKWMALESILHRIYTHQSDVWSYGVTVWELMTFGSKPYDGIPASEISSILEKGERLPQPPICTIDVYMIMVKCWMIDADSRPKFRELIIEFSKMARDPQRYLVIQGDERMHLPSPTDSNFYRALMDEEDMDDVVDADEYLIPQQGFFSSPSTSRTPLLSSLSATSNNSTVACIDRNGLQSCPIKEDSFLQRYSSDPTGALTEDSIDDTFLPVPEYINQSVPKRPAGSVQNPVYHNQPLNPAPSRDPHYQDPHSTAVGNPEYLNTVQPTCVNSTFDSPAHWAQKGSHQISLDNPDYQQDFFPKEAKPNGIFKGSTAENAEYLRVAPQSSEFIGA
Method in brief: (§2)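 Phosphorylation of TK Substrate-biotin (1 μM) was measured at 1 mM ATP over a 1 h room-temperature incubation with serially varied compound. Detection was by HTRF ratio and analysis by 4PL fit to IC50.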

EGFR (d746-750 C797S) = target: T2, EGFR (d746-750 C797S) (Homo sapiens, UniProt P00533, C797S/DEL746-750); experiment: Inhibition of EGFR (d746-750 C797S) biochemical enzymatic activity (HTRF); conditions: 1 mM ATP
T2 construct: purchased signalchem
Method in brief: as §2

EGFR wild type = target: T3, EGFR wild type (Homo sapiens, UniProt P00533); experiment: Inhibition of EGFR wild type biochemical enzymatic activity (HTRF); conditions: 1 mM ATP
T3 construct: purchased Carna Bio
T3 sequence (P00533 25-1210): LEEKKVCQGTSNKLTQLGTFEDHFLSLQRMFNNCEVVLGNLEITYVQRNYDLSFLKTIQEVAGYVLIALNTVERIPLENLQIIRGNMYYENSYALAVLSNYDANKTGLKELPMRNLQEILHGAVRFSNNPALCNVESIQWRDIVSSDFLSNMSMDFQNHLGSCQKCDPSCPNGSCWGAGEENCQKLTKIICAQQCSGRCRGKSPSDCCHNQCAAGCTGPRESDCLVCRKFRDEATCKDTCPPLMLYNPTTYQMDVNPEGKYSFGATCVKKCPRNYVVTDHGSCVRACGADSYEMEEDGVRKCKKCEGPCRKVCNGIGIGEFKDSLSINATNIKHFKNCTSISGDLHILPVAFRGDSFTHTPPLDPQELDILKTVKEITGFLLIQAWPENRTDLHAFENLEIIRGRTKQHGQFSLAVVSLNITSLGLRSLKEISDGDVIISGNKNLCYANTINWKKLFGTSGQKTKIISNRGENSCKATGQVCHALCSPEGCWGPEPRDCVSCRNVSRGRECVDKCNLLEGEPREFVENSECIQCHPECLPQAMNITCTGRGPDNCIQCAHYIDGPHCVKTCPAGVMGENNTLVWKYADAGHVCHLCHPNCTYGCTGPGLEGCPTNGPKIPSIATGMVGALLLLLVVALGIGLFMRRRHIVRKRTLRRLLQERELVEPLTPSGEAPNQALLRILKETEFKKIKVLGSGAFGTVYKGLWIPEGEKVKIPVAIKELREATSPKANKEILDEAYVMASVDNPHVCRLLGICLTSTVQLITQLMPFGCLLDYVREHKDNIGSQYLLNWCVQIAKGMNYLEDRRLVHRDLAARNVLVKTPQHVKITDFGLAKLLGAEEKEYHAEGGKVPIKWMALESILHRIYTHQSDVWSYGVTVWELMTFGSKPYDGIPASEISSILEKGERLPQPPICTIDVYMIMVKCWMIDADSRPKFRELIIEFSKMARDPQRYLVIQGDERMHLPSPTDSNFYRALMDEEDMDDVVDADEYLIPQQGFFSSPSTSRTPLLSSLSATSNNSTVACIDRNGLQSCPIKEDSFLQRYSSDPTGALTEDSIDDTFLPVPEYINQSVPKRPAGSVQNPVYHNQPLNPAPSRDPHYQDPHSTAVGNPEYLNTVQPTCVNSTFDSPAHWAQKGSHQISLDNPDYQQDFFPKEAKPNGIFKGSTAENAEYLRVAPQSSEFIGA
Method in brief: as §2

EGFR (C797S L858R) = target: T4, EGFR (C797S L858R) (Homo sapiens, UniProt P00533, C797S/L858R); experiment: Inhibition of EGFR (C797S L858R) biochemical enzymatic activity (HTRF); conditions: 1 mM ATP
T4 construct: purchased signalchem
T4 sequence (P00533 25-1210 C797S/L858R): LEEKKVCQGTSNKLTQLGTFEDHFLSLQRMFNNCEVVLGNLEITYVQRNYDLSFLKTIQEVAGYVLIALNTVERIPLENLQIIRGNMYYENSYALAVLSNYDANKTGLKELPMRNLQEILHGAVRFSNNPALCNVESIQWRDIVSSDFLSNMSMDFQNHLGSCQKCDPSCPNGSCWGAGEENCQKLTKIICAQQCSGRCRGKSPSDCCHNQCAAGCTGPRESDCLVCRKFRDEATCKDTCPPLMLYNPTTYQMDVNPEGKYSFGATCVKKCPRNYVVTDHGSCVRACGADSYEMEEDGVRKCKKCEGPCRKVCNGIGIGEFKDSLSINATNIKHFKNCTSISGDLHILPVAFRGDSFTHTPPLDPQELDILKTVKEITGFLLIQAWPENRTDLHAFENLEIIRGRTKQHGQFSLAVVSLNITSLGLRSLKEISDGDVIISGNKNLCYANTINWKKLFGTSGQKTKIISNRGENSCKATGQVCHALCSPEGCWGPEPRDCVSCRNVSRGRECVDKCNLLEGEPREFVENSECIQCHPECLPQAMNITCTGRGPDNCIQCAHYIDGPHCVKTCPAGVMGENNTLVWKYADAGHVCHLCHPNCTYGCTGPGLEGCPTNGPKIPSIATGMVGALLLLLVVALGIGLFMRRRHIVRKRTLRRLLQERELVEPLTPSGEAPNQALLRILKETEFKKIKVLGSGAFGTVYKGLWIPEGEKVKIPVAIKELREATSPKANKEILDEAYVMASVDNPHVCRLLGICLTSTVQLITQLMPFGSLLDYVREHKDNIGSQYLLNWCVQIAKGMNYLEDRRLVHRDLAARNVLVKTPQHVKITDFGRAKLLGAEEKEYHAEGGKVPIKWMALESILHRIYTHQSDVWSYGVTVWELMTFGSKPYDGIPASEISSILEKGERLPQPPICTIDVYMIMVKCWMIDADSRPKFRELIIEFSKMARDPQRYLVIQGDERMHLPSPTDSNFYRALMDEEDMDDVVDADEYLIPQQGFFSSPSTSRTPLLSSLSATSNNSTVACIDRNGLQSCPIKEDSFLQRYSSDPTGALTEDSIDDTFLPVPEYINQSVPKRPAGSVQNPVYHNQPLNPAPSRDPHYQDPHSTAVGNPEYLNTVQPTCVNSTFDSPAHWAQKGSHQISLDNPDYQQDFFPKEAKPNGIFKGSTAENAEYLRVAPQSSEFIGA
Method in brief: as §2

[1] = test system: Ba/F3 cells expressing EGFR mutations; experiment: Cell proliferation assay, Ba/F3 cells expressing EGFR mutations (CellTiter-Glo, 72 hours); type: cell-based; conditions: Mus musculus, BaF3, 72 h
Method in brief: as §1

A-431 = experiment: Cell proliferation assay, A-431 cells (GI50, Table 6); type: cell-based; conditions: Homo sapiens, A-431, A-431 cells
Experimental: [Worded in the source for another cell line; this cell line is reported under the same test.] Ba/F3 cells expressing EGFR mutations were seeded in 384-well plates at 5000 cells/well in RPMI1640 medium containing […]. PC-9 at 500 cells/well was seeded into 384-well plates in RPMI1640 medium with 10% FBS. After overnight incubation, the assay plates were dosed with compounds at a series of concentrations. Alongside dosing the assay plates, the day 0 plate was processed using CellTiter-Glo® Luminescent Cell Viability Assay (Promega) to measure the number of viable cells (G0). The assay plates were further incubated for 72 hours and the number of viable cells (G3) was measured. The percentage of proliferation was calculated as: […]=100×(G3 value of sample well−G0 value)/(G3 value of DMSO control−G0 value). The concentration of compound producing 50% proliferation inhibition (GI50) was further calculated in best-fit curves using XLFit software. N/A=not available.

EGFR Exon19Del = target: T5, EGFR Exon19Del (Homo sapiens, UniProt P00533, DEL746-750); experiment: Inhibition of EGFR Exon19Del biochemical enzymatic activity (HTRF)
T5 construct: purchased Carna Bio
Method in brief: as §2

EGFR Exon19Del/T790M = target: T6, EGFR Exon19Del/T790M (Homo sapiens, UniProt P00533, DEL746-750/T790M); experiment: Inhibition of EGFR Exon19Del/T790M biochemical enzymatic activity (HTRF); conditions: 1 mM ATP
T6 construct: purchased Carna Bio
Method in brief: as §2

EGFR L858R = target: T7, EGFR L858R (Homo sapiens, UniProt P00533, L858R); experiment: Inhibition of EGFR L858R biochemical enzymatic activity (HTRF); conditions: 1 mM ATP
T7 construct: purchased Carna Bio
Method in brief: as §2

EGFR[T790M/C797S/L858R] = target: T8, EGFR[T790M/C797S/L858R] (Homo sapiens, UniProt P00533, C797S/L858R/T790M); experiment: Inhibition of EGFR[T790M/C797S/L858R] biochemical enzymatic activity (HTRF); conditions: 1 mM ATP
T8 construct: purchased Carna Bio
T8 sequence (P00533 25-1210 T790M/C797S/L858R): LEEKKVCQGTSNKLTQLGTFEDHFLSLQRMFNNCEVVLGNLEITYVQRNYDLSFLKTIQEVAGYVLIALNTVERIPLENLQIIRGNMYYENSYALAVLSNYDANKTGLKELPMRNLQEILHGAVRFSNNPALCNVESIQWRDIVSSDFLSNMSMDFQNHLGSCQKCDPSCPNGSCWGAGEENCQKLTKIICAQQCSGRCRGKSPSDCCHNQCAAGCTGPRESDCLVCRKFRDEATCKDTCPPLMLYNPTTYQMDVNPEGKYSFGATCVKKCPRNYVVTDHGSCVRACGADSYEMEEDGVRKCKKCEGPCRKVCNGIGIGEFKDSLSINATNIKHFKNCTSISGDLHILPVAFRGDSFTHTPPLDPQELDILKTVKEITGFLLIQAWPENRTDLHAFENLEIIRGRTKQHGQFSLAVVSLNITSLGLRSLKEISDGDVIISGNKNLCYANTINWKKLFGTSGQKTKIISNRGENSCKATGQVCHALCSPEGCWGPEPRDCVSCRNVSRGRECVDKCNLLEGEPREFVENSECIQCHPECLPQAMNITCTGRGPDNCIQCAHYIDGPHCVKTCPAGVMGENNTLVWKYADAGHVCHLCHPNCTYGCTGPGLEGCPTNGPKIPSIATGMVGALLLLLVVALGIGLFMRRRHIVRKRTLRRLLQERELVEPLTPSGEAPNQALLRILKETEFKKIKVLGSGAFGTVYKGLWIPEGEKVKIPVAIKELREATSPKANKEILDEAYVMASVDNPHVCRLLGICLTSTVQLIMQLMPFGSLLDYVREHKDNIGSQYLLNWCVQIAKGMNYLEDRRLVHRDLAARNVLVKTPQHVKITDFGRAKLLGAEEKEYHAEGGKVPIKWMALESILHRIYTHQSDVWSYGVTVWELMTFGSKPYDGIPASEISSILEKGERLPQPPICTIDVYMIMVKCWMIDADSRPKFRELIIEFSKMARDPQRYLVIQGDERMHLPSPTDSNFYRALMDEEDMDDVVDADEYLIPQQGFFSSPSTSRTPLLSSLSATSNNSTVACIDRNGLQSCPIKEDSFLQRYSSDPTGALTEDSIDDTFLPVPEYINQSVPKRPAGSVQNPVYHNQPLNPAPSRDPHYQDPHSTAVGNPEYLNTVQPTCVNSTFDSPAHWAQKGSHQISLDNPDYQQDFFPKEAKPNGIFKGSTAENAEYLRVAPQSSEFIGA
Method in brief: as §2

[2] = target: T9, EGFR[T790M/C797S/d746-750] (Homo sapiens, UniProt P00533, C797S/DEL746-750/T790M); experiment: Inhibition of EGFR[T790M/C797S/d746-750] biochemical enzymatic activity (HTRF)
T9 construct: purchased Carna Bio
Method in brief: as §2

[3] = BaF3 cells, EGFR DEL19 - C797S, read-out: GI50 DEL19 - C797S/BaF3
[4] = BaF3 cells, EGFR DEL19 - T790-C797S, read-out: GI50 DEL19 - T790-C797S/BaF3
[5] = BaF3 cells, EGFR L858R - C797S, read-out: GI50 L858R - C797S/BaF3
[6] = BaF3 cells, EGFR L858R - T790-C797S, read-out: GI50 L858R - T790-C797S/BaF3
[7] = BaF3 cells, EGFR L858R - T790M, read-out: GI50 L858R - T790M/BaF3
[8] = BaF3 cells, EGFR L858R, read-out: GI50 L858R/BaF3
[9] = EGFR DEL19 - T790M, read-out: GI50 DEL19 - T790M
[10] = EGFR L858R-T790M, 1 h, room temperature, read-out: IC50 (nM) @L858R-T790M
[11] = EGFR Del19-C797S, 1 h, room temperature, read-out: IC50 (nM) @Del19-C797S
[12] = EGFR WT, 1 h, room temperature, read-out: IC50 (nM) @WT
[13] = EGFR L858-C797S, 1 h, room temperature, read-out: IC50 (nM) @L858-C797S
[14] = EGFR Del19, 1 mM ATP, 1 h, room temperature, read-out: IC50 @Del19
[15] = EGFR Del19-T790M, 1 h, room temperature, read-out: IC50 (nM) @Del19-T790M
[16] = 1 h, room temperature, read-out: IC50 (nM) @L858R
[17] = EGFR T790M-C797S-L858R, 1 h, room temperature, read-out: IC50 (nM) @T790M- C797S - L858R
[18] = EGFR T790M-C797S-Del19, 1 mM ATP, 1 h, room temperature, read-out: IC50 (nM) @T790M - C797S - Del19

GI50 (PC-9) [nM] | GI50 [1, 3] [nM] | GI50 [1, 4] [nM] | GI50 [1, 5] [nM] | GI50 [1, 6] [nM] | GI50 [1, 7] [nM] | GI50 [1, 8] [nM] | GI50 [1, 9] [nM] | GI50 (A-431) [nM] | IC50 (EGFR L858R/T790M; [10]) [nM] | IC50 (EGFR (d746-750 C797S); [11]) [nM] | IC50 (EGFR wild type; [12]) [nM] | IC50 (EGFR (C797S L858R); [13]) [nM] | IC50 (EGFR Exon19Del; [14]) [nM] | IC50 (EGFR Exon19Del/T790M; [15]) [nM] | IC50 (EGFR L858R; [16]) [nM] | IC50 (EGFR[T790M/C797S/L858R]; [17]) [nM] | IC50 [2, 18] [nM] | SMILES | other results
19 | 2 | 2 | 22 | 2 | 5 | 17 | 2 | 3600 | – | – | – | – | – | – | – | – | – | Cc1cc2cc(n1)-c1cnn(C)c1OCCN1CC3CCC(CC3)(C1)n1c(nc3ccc(N4CCC(N(C)C)CC4)cc31)NC2=O [Example B27, 5-[4-(dimethylamino)piperidin-1-yl]-15,21-dimethyl-23-oxa-2,9,11,16,20,21,26-heptaazaheptacyclo[26.2.2.1^{1,26}.1^{13,17}.0^{2,10}.0^{3,8}.0^{18,22}]tetratriaconta-3,5,7,9,13,15,17(34),18(22),19-nonaen-12-one] | IC50 (EGFR L858R/T790M; IC50 @L858R-T790M, EGFR L858R/T790M, 1 h at room temperature): 8.3 nM; IC50 (EGFR (d746-750 C797S); IC50 @Del19-C797S, EGFR (d746-750 C797S), 1 h at room temperature): 6.3 nM; IC50 (EGFR wild type; IC50 @WT, EGFR wild type, 1 h at room temperature): 3540 nM; IC50 (EGFR (C797S L858R); IC50 @L858-C797S, EGFR (C797S L858R), 1 h at room temperature): 30 nM; IC50 (EGFR Exon19Del; IC50 @Del19, EGFR Exon19Del, 1 mM ATP, 1 h at room temperature): 11 nM; IC50 (EGFR Exon19Del/T790M; IC50 @Del19-T790M, EGFR Exon19Del/T790M, 1 h at room temperature): 8.3 nM; IC50 (EGFR L858R; IC50 @L858R, 1 h at room temperature): 67 nM; IC50 (EGFR[T790M/C797S/L858R]; IC50 @T790M- C797S - L858R, EGFR[T790M/C797S/L858R], 1 h at room temperature): 3.8 nM; IC50 ([2]; IC50 @T790M - C797S - Del19, EGFR[T790M/C797S/d746-750], 1 mM ATP, 1 h at room temperature): 3.1 nM
54 | 13 | 71 | 50 | 28 | 113 | 8.1 | 40 | 7850 | 374 | 14 | > 5000 | 108 | 22 | 16 | 177 | 113 | 15 | CN(C)[C@H]1CCN(c2ccc3nc4n(c3c2)C23CCC(CC2)CN(CCOc2c(cnn2C)-c2cc(cn(C)c2=O)C(=O)N4)C3)C1 [Example A120] | –
27 | 7.2 | 38 | 32 | 11 | 47 | 5.2 | 26 | 3800 | 334 | 11 | 2790 | 76 | 15 | 9.8 | 139 | 72 | 7.7 | CN(C)CCN(C)c1ccc2nc3n(c2c1)C12CCC(CC1)CN(CCOc1c(cnn1C)-c1cc(cn(C)c1=O)C(=O)N3)C2 [Example A124] | –
22 | 3.2 | 22 | 19 | 13 | 82 | 4.1 | – | 2100 | 39 | 3.5 | 1420 | 25 | 6.8 | 7.6 | 48 | 8.1 | 5.2 | CN1CCC12CCN(c1ccc3nc4n(c3c1)C13CCC(CC1)CN(CCOc1c(cnn1C)-c1cc(cn(C)c1=O)C(=O)N4)C3)CC2 [Example A122] | –
